This experiment concerns the target Adenosine receptor A2a (Homo sapiens, UniProt P29274). In words: Binding affinity to human adenosine A2a receptor by competition binding assay.
Sequence of Adenosine receptor A2a (P29274 whole entry): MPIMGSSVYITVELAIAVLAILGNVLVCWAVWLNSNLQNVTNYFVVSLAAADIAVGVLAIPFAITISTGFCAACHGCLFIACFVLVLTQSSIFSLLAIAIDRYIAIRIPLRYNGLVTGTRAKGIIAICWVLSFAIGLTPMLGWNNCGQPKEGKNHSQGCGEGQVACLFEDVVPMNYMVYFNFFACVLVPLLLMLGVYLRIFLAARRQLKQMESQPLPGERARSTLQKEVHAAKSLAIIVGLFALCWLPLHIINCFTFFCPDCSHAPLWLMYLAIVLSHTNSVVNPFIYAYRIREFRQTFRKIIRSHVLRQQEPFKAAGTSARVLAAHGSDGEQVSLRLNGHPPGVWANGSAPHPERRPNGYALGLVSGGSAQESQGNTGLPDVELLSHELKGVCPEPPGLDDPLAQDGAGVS
As to `Nc1nc2c(cnn2CCN2CCN(c3ccc(OCC(=O)O)cc3)CC2)c2nc(C(O)CCC(=O)O)nn12` (centres undefined), the inhibitory constant (Ki) was > 1000 nM.

Consider `COCCOc1ccc(N2CCN(CCn3ncc4c3nc(N)n3nc(C(O)CCC(=O)O)nc43)CC2)cc1` (centres undefined), for which the Ki was > 1000 nM.

`Nc1nc2c(cnn2CC(=O)O)c2nc(-c3ccco3)nn12`: the Ki is > 1000 nM.

Compound `Nc1nc2c(cnn2CCN2CCN(c3ccc(OCC(=O)O)cc3)CC2)c2nc(-c3ccco3)nn12` gave an inhibition constant (Ki) of 1.4 nM.

The values are drawn from ChEMBL document CHEMBL2321738, “Metabolites of the pyrimidine amine preladenant as adenosine a2a receptor antagonists” (ACS Med Chem Lett, 2013).
